Our source for the IC50 values is patent publication US20250304549A1, “HYDROXYAMIDE DERIVATIVE AND USE THEREOF” (SICHUAN HUIYU PHARMACEUTICAL CO., LTD., priority 2022, published 2025).

The target of one assay is pan-HDAC. As to the kind of experiment: In vitro enzyme inhibition assay - HDAC (HDAC-Glo I/II), pan-HDAC. The format is biochemical. As to the method: 2. In Vitro Enzyme Inhibition Assay—HDAC
The effect of the compound on the enzymatic activity of pan-HDAC and two isoforms (HDAC1 and HDAC8) was examined using the HDAC-Glo I/II Assay and Screening System assay to assess the level of inhibition of HDAC protease activity and selectivity in each isoform. The proteins and detection reagents were from the HDAC-Glo™ I/II Assay and Screening System (Promega). A 1 mM stock solution of the compound was prepared in DMSO and diluted in a 5-fold gradient to create a series of 8 concentrations, and a specific volume of the highest concentration was diluted 25 times with HDAC Buffer to obtain 4× working solution of the compound. […] The 384-well plate was then read on a multifunctional microplate reader, with the Luminescence channel selected to record Luminescence values (RLU). The inhibition rate was calculated using the following formula: […]
(§1) Note: ‘Negative’ refers to the group without the inhibitor; ‘Blank’ refers to the group without the enzyme.
(§2) The IC50 value was calculated by fitting the inhibition rate by GraphPad Prism software, employing log (inhibitor) vs. response-Variable Slope (four parameters) model.

In another assay the test system is NCI-H1417 cells. As to the kind of experiment: In vitro cell inhibition assay - H1417 cell proliferation (CellTiter-Glo). To be noted: Homo sapiens, NCI-H1417, H1417 small cell lung cancer cell proliferation. The format is cell-based. The method, then: 3. In Vitro Cell Inhibition Assay—H1417 Cell Proliferation
The inhibitory effect of the compounds on cell proliferation was assessed by detecting the number of viable cells using the CellTiter-Glo® reagent. […] The compounds were sequentially diluted in a 5-fold concentration gradient with DMSO to obtain 8 different concentrations o. These were diluted with BEGM (containing 10% FBS) cell culture medium to obtain the compound working solution (2×), which was added to the cell supernatant at 100 μL per well. The incubation continued for 7 days at 37° C., 5% CO2. The plate was then removed and equilibrated to room temperature (25° C.) along with the CellTiter-Glo® mixing reagent for 10-30 minutes. After centrifugation, 100 μL of the culture medium was carefully aspirated from each well, and 85 μL of CellTiter-Glo® reagent was added. The cells were thoroughly mixed with the CellTiter-Glo® mixing reagent using a microplate shaker for 2 min. and then incubated at room temperature for 10 min. The 96-well plate was subsequently placed on a multifunctional microplate reader to record the Luminescence values (RLU). • The inhibition rate was calculated using the following formula: […]
(§3) Note: ‘Negative’ refers to the group without inhibitors; ‘Blank’ refers to the group without cells.
(§4) The IC50 value was determined by fitting the inhibition rate by GraphPad Prism software.

The target in another assay is LSD1 (Homo sapiens (Human), UniProt O60341). In words: In vitro enzyme inhibition assay - LSD1 (HTRF). The format is biochemical. As to the method:
1. In Vitro Enzyme Inhibition Assay—LSD1
Initially, a master solution of 90 μM test compound (dissolved in DMSO) was prepared and sequentially diluted with DMSO in a 5-fold concentration gradient to yield a total of 9 concentrations of the compound working solution 1 (90×). Subsequently these 9 concentrations of working solution 1 were sequentially diluted by a 30-fold concentration gradient, i.e., 2 μL of working solution 1 was aspirated and added to 58 μL of Buffer, mixed on a vortex mixer with sufficient shaking to yield 9 concentrations of the screening test compound working solution 2 (3×). […] The mixture was incubated at room temperature for 15 minutes. […] Afterward, 2 μL of a termination solution (containing 5.4 mM 2-PCPA) was added to each well, mixed evenly, and incubated for another 15 minutes. Finally 4 μL of a pre-mixed antibody solution of Eu-anti H3K4 (PerkinElmer, TRF0404-D) and allophycocyanin (Prozyme, PJ27S) (1:1) was added to each well, mixed evenly, and incubated for 60 minutes. […] The inhibition rate was calculated through the following formula: […]
as §1, §2
For orientation: Time-resolved FRET reads energy transfer from a long-lived donor to a nearby acceptor.

A further assay concerns NCI-H69 cells. As to the kind of experiment: In vitro cell inhibition assay - NCI-H69 cell proliferation (CellTiter-Glo). The conditions noted are these: Homo sapiens, NCI-H69, H69 small cell lung cancer cell proliferation. The assay is classed as cell-based. The method, then:
4. In Vitro Cell Inhibition Assay—NCI-H69 Cell Proliferation
The inhibitory effect of the compounds on cell proliferation was assessed by detecting the number of viable cells using the CellTiter-Glo® reagent. NCI-H69 cells in the logarithmic growth phase were collected and inoculated into transparent bottom 96-well plates at a density 1×10^3 cells per well with 100 μL medium, and incubated at 37° C., 5% CO2 overnight. The compounds were sequentially diluted in a 5-fold concentration gradient with DMSO to obtain 8 different concentrations These were then diluted with RPMI-640 (containing 20% FBS) cell culture medium to obtain the compounds working solution (2×), which was added to the cell supernatant at 100 μL per well. The incubation continued for 7 days at 37° C., 5% CO2. The plate was then removed and equilibrated to room temperature (25° C.) along with the CellTiter-Glo® mixing reagent for 10-30 minutes. After centrifugation at 1200 rpm for 5 minutes, 120 μL of the culture medium was carefully aspirated from each well, and 60 μL of CellTiter-Glo® reagent was added. The cells were thoroughly mixed with the CellTiter-Glo® mixing reagent using a microplate shaker for 2 min. and then incubated at room temperature for 10 min. The 96-well plate was subsequently placed on a multifunctional microplate reader to record the Luminescence values (RLU).
The inhibition rate was calculated using the following formula: […]
as §3, §4
On the technique in general: ATP-based viability assays read luminescence as a measure of living cells.

SMILES strings stand for the structures. Counter-ions that a name gives are not always drawn.

For `COc1ccc(-c2c(OCCCCCCC(=O)NO)cc(N3CCC(N)CC3)nc2-c2ccc(C#N)c(F)c2)cc1F` [Example 3, 7-(6-(4-Aminopiperidin-1-yl)-2-(4-cyano-3-fluorophenyl)-3-(3-fluoro-4-methoxyphenyl)pyridin-4-yl)oxy-N-hydroxyheptanamide hydrochloride], the IC50 against pan-HDAC worked out at 29 nM; in the assay on NCI-H1417 cells, 226 nM; on LSD1, 13.7 nM.

With `CS(=O)(=O)c1ccc(-c2c(OCCCCCCC(=O)NO)cc(N3CCC(N)CC3)nc2-c2ccc(C#N)c(F)c2)cc1` [Example 4, 7-(6-(4-Aminopiperidin-1-yl)-2-(4-cyano-3-fluorophenyl)-3-(4-(methylsulfonyl)phenyl)pyridin-4-yl)oxy)-N-hydroxyheptanamide hydrochloride], the IC50 at pan-HDAC was found to be 12 nM; in the assay on NCI-H1417 cells, 209 nM; against LSD1, 11.9 nM.

For the compound `N#Cc1ccc(-c2nc(N3CCC(N)CC3)cc(OCCCCCCC(=O)NO)c2-c2ccc(N)cc2)cc1F` [Example 5, 7-(3-(4-Aminophenyl)-6-(4-aminopiperidin-1-yl)-2-(4-cyano-3-fluorophenyl)pyridin-4-yl)oxy)-N-hydroxyheptanamide hydrochloride], the IC50 against pan-HDAC was 15 nM; in the assay on NCI-H1417 cells it was 128 nM.

Consider `N#Cc1ccc(-c2nc(N3CCC(N)CC3)cc(OCCCCCCC(=O)NO)c2-c2ccc(F)c(F)c2)cc1F` [Example 6, 7-(6-(4-Aminopiperidin-1-yl)-2-(4-cyano-3-fluorophenyl)-3-(3,4-difluorophenyl)pyridin-4-yl)oxy)-N-hydroxyheptanamide hydrochloride], for which the IC50 against pan-HDAC amounted to 134 nM; on LSD1, 254 nM.

In the case of `Cc1cc(-c2c(OCCCCCCC(=O)NO)cc(N3CCC(N)CC3)nc2-c2ccc(C#N)c(F)c2)ccn1` [Example 10, 7-((6-(4-Aminopiperidin-1-yl)-2-(4-cyano-3-fluorophenyl)-2′-methyl-[3,4′-bipyridin]-4-yl)oxy)-N-hydroxyheptanamide hydrochloride], the values for the IC50 against pan-HDAC and against LSD1 were 39 nM and 75.4 nM, respectively.

Take `COc1ccc(-c2c(OCCCCCCC(=O)NO)cc(N3CCC(N)CC3)nc2-c2ccc(C#N)cc2)cc1O` [Example 12, 7-((6-(4-Aminopiperidin-1-yl)-2-(4-cyanophenyl)-3-(3-hydroxy-4-methoxyphenyl)pyridin-4-yl)oxy)-N-hydroxyheptanamide]: the IC50 amounted to 7.31 nM against pan-HDAC and 0.92 nM at LSD1.

Take `Cc1nc(N2CCC(N)CC2)c(C#N)c(-c2ccc(C#N)c(F)c2)c1-c1ccc(OCCCCCCC(=O)NO)c(O)c1` [Example 26, 7-(4-(6-(4-Aminopiperidin-1-yl)-5-cyano-4-(4-cyano-3-fluorophenyl)-2-methylpyridin-3-yl)-2-hydroxyphenoxy)-N-hydroxyheptanamide hydrochloride]: the figures for the IC50 against pan-HDAC, in the assay with NCI-H1417 cells and at LSD1 were 35 nM, 152 nM and 0.12 nM, respectively.

Regarding `COc1ccc(-c2c(-c3ccc(C#N)c(F)c3)nc(N3CCC(NCCCCCCC(=O)NO)CC3)n3ccnc23)cc1O` [Example 35, 7-((1-(7-(4-Cyano-3-fluorophenyl)-8-(3-hydroxy-4-methoxy-phenyl)imidazo[1,2-c]pyrimidin-5-yl)piperidin-4-yl)amino)-N-hydroxy-heptanamide hydrochloride], the half-maximal inhibitory concentration (IC50) came to 266 nM at pan-HDAC, 188 nM in the assay on NCI-H1417 cells and 4.63 nM on LSD1.

For `N#Cc1ccc(-c2nc(N3CCC(N)CC3)n3ccnc3c2-c2ccc(NC(=O)CCCCCCC(=O)NO)c(O)c2)cc1F` [Example 57, N^1-(4-(5-(4-aminopiperidin-1-yl)-7-(4-cyano-3-fluorophenyl)imidazo[1,2-c]pyrimidin-8-yl)-2-hydroxyphenyl)-N^8-hydroxyoctanediamine diformate], the values for the IC50 against pan-HDAC, in the assay on NCI-H1417 cells and on LSD1 were 72 nM, 14.5 nM and 0.26 nM, respectively.

As to `COc1ccc(-c2cnc(N3CCC(NCc4ccc(C5=C(C(=O)NO)CCC5)cc4)CC3)c(C#N)c2-c2ccc(C#N)c(F)c2)cc1O` [Example 163, 2-(4-(((1-(3-Cyano-4-(4-cyano-3-fluorophenyl)-5-(3-hydroxy-4-methoxyphenyl)pyridin-2-yl)piperidin-4-yl)amino)methyl)phenyl)-N-hydroxycyclopent-1-ene-1-carboxamide formate], the figures for the IC50 in the assay with NCI-H69 cells and in the assay with NCI-H1417 cells were 1400 nM and 4.97 nM, respectively.

Regarding `COc1ccc(-c2cnc(N3CCC(NCc4ccc(C5CC5C(=O)NO)cc4)CC3)c(C#N)c2-c2ccc(C#N)c(F)c2)cc1O` (stereo not shown) [Example 167, 2-(4-((1-(3-Cyano-4-(4-cyano-3-fluorophenyl)-5-(3-hydroxy-4-methoxyphenyl)pyridin-2-yl)piperidin-4-yl)amino)methyl) phenyl)-N-hydroxycyclopropane-1-carboxamide formate], the IC50 in the assay with NCI-H69 cells stood at 381 nM; in the assay with NCI-H1417 cells, 0.39 nM; on LSD1, 0.37 nM.

As for `COc1ccc(-c2cnc(N3CCC(NCc4ccc(/C=C/CC(=O)NO)cc4)CC3)c(C#N)c2-c2ccc(C#N)c(F)c2)cc1O` [Example 169, (E)-4-(4-(((1-(3-Cyano-4-(4-cyano-3-fluorophenyl)-5-(3-hydroxy-4-methoxyphenyl)pyridin-2-yl)piperidin-4-yl)amino)methyl)phenyl)-N-hydroxybut-3-enamide formate], the half-maximal inhibitory concentration (IC50) in the assay on NCI-H69 cells was determined as 310 nM; in the assay with NCI-H1417 cells, 2.33 nM.

Turning to `COc1ccc(-c2cnc(N3CCC(NCc4ccc(/C=C(\C)C(=O)NO)cc4)CC3)c(C#N)c2-c2ccc(C#N)c(F)c2)cc1O` [Example 172, (E)-3-(4-(((1-(3-Cyano-4-(4-cyano-3-fluorophenyl)-5-(3-hydroxy-4-methoxyphenyl)pyridin-2-yl)piperidin-4-yl)amino)methyl)phenyl)-N-hydroxy-2-methylacrylamide formate], the results for the IC50 in the assay with NCI-H69 cells, with NCI-H1417 cells and against LSD1 were 1280 nM, 1.71 nM and 0.74 nM, respectively.

Regarding `COc1ccc(-c2cnc(N3CCC(NCc4ccc(OCC(=O)NO)nc4)CC3)c(C#N)c2-c2ccc(C#N)c(F)c2)cc1O` [Example 174, 2-((5-(((1-(3-Cyano-4-(4-cyano-3-fluorophenyl)-5-(3-hydroxy-4-methoxyphenyl)pyridin-2-yl)piperidin-4-yl)amino)methyl)pyridin-2-yl)oxy)-N-hydroxyacetamide formate], the IC50 is 4170 nM in the assay on NCI-H69 cells and 8.67 nM in the assay with NCI-H1417 cells.

Take `O=C(/C=C/c1ccc(CNC(=O)c2cc(CN[C@@H]3C[C@H]3c3ccc(F)cc3)nc(-c3ccc(-n4cccn4)cc3)n2)cc1)NO` [Example 232, 2-(4-(1H-pyrazol-1-yl)phenyl)-6-((((1R,2S)-2-(4-fluorophenyl)cyclopropyl)amino)methyl)-N-(4-((E)-3-(hydroxyamino)-3-oxoprop-1-en-1-yl)benzyl)pyrimidine-4-carboxamide formate]: the concentration for half-maximal inhibition (IC50) with NCI-H69 cells is 160 nM; in the assay on NCI-H1417 cells it was 32.1 nM.

By IC50 is commonly meant the concentration at which inhibition is half-maximal.
